In ChEMBL document CHEMBL1201862, “PubChem BioAssay data set” (2004):
Calls of active or inactive are those of the source.

Legend:
[1] = biological target: Intestinal-type alkaline phosphatase (Homo sapiens, UniProt P09923); experiment: human intestinal alkaline phosphatase activators, dose response, biochemical, luminescence, uHTS hits (AID 463120); format: functional
Genome polyprotein = Genome polyprotein (dengue virus type 2, UniProt P29990); experiment: Dengue-2 NS5 methyltransferase inhibitors, primary screen, biochemical, confirmation dose response (AID 588689); format: functional
Sequence of Genome polyprotein (P29990 2492-3391 limits assumed): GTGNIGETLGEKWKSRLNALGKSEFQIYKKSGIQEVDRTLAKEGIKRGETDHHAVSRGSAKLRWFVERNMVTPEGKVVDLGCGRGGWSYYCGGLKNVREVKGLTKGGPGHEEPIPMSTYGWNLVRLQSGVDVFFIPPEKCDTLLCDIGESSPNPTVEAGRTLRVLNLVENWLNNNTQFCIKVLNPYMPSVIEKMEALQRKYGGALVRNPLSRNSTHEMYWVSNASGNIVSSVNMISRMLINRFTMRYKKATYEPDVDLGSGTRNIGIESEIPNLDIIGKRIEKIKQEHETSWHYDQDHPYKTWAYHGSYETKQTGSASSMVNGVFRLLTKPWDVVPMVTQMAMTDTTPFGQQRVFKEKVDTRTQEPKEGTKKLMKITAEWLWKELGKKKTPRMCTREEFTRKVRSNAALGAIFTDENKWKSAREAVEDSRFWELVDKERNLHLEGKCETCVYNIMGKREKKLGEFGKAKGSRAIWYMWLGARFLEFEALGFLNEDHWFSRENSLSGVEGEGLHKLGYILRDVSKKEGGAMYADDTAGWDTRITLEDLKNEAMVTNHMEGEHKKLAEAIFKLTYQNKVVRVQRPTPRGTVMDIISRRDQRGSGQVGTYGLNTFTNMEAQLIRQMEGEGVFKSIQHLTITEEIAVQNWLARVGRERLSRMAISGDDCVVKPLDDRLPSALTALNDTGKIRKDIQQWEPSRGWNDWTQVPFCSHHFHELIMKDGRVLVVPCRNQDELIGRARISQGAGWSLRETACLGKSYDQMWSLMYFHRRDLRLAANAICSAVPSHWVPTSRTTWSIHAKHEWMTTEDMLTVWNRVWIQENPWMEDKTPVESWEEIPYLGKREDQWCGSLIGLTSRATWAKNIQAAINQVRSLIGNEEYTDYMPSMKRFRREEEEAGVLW

X-box-binding protein 1 = X-box-binding protein 1 (Homo sapiens, UniProt P17861); format: functional, Cricetulus griseus;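 note: confirmatory dose-response counter-screen serving a CHOP assay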
Sequence of X-box-binding protein 1 (P17861 whole entry): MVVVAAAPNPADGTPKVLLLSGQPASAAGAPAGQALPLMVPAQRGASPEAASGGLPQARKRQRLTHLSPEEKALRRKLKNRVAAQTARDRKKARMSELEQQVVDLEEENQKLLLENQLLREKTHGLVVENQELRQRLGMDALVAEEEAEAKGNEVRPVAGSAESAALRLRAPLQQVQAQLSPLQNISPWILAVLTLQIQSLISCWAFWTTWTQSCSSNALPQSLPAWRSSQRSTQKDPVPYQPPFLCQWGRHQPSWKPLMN

[2] = biological target: DNA damage-inducible transcript 3 protein (Mus musculus, UniProt P35639); format: functional, Cricetulus griseus
Sequence of DNA damage-inducible transcript 3 protein (P35639 whole entry): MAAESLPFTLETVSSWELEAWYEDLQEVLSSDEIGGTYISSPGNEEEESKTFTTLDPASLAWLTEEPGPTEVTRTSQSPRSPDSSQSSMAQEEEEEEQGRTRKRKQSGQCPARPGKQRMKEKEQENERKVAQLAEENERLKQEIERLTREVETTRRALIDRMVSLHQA

[3] = biological target: Peroxisome proliferator-activated receptor gamma/Nuclear receptor coactivator 3 (Homo sapiens, UniProt P37231); experiment: (§1) TR-FRET dose response biochemical High Throughput Screening assay for agonists of the steroid receptor coactivator 3 (SRC-3) recruitment by the peroxisome proliferator-activated receptor gamma (PPAR gamma): non-selective agonists. [Related pubchem assays: 1301 (Confirmation screen.), 1048 (Primary screen.)]; format: functional
[4] = biological target: Peroxisome proliferator-activated receptor gamma/Nuclear receptor coactivator 1 (Homo sapiens, UniProt P37231); experiment: as §1, with “1 (SRC-1)” for “3 (SRC-3)”, “assays (depositor defined):AID1300, AID1808, AID504735, AID631]” for “assays: 1301 (Confirmation screen.), 1048 (Primary screen.)]”; format: protein assay
[5] = Luminescence Cell-Based Dose Retest to Confirm Inhibitors of Cancer Stem Cells. [Related pubchem assays (depositor defined):AID2717, AID2721]; format: functional; settings: Homo sapiens
[6] = biological target: Peroxisome proliferator-activated receptor gamma/Nuclear receptor coactivator 2 (Homo sapiens, UniProt P37231); experiment: TR-FRET dose response biochemical High Throughput Screening assay for agonists of the steroid receptor coactivator 2 (SRC-2) recruitment by the peroxisome proliferator-activated receptor gamma (PPAR gamma): non-selective agonists. [Related pubchem assays: 1297, 1032 ]; format: functional
[7] = biological target: T1, Tyrosine-protein phosphatase non-receptor type 7 (Homo sapiens, UniProt P35236); experiment: HTS HePTP Fluorescent Assay using OMFP substrate for In Vitro dose response studies. [Related pubchem assays (depositor defined):AID1059, AID1077, AID1784, AID2068, AID2085, AID435032, AID521]; format: functional
T1 sequence (P35236 whole entry): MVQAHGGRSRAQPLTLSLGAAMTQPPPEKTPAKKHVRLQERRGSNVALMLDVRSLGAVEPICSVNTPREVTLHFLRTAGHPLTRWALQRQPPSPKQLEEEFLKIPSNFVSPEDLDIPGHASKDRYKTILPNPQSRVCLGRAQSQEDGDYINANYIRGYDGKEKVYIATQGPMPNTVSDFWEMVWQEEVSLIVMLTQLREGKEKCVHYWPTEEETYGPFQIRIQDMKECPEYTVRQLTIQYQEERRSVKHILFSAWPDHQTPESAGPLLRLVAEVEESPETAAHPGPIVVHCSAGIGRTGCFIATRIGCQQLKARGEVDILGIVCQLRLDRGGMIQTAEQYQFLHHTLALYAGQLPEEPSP

[8] = biological target: T2, Voltage-gated N-type calcium channel alpha-1B subunit/Amyloid beta A4 precursor protein-binding family A member 1 (Homo sapiens, UniProt Q00975+Q02410); format: protein assay
T2 sequence (Q00975 whole entry): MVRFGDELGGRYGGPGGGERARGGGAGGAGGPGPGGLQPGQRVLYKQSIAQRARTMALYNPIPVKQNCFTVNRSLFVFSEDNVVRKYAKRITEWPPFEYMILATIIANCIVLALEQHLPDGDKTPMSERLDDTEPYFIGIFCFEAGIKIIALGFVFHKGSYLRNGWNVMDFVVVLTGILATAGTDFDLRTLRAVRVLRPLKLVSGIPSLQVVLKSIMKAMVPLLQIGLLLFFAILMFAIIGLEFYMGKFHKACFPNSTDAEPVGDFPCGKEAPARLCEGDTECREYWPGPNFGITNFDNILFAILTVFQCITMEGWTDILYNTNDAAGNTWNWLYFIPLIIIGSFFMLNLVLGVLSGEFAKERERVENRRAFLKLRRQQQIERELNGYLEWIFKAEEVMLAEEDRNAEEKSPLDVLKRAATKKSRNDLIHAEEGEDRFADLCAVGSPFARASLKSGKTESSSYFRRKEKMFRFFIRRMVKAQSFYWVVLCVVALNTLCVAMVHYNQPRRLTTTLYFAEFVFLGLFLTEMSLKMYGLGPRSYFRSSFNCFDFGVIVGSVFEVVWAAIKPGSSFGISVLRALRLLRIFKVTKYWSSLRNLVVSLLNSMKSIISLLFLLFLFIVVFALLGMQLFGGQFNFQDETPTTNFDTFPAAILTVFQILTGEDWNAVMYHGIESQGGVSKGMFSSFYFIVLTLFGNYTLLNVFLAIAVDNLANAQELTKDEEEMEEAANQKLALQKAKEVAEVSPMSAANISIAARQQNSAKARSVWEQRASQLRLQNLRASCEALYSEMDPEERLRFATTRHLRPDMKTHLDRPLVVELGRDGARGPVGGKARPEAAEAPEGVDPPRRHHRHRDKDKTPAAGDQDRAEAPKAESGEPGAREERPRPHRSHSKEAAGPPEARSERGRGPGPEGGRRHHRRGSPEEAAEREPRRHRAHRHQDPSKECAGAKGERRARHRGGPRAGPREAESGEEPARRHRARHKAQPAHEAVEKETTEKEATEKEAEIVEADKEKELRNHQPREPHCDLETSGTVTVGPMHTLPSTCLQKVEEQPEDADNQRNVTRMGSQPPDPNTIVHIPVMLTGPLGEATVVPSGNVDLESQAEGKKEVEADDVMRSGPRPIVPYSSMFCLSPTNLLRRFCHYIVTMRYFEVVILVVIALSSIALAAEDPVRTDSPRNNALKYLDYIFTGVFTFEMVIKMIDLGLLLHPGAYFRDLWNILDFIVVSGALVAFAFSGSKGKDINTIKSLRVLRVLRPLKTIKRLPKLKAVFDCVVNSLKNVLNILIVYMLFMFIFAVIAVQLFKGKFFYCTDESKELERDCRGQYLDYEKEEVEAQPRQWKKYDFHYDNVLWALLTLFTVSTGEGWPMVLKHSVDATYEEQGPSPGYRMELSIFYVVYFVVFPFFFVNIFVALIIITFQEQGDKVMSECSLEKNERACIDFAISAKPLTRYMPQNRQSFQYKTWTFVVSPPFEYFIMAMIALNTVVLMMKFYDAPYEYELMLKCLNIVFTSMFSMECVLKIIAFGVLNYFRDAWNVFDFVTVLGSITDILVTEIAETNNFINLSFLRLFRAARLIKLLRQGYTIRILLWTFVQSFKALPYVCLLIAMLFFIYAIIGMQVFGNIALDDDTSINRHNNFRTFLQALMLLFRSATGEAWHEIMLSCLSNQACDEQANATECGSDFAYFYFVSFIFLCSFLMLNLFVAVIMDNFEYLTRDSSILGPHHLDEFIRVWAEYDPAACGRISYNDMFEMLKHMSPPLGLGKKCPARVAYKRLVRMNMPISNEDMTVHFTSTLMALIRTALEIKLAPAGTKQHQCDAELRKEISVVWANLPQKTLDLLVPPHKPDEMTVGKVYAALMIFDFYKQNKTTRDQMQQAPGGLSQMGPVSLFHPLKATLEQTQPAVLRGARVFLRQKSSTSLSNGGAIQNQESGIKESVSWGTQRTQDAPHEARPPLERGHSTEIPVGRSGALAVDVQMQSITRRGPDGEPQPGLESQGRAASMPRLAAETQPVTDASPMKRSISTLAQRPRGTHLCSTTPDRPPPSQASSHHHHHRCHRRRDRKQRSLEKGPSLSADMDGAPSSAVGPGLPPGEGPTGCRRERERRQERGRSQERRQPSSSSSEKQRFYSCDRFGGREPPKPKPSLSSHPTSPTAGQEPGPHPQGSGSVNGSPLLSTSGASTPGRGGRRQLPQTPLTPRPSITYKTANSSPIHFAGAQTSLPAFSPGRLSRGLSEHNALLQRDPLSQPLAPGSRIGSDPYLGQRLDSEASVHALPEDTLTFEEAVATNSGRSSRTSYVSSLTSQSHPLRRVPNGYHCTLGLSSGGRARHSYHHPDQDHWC
T2 sequence (Q02410 whole entry): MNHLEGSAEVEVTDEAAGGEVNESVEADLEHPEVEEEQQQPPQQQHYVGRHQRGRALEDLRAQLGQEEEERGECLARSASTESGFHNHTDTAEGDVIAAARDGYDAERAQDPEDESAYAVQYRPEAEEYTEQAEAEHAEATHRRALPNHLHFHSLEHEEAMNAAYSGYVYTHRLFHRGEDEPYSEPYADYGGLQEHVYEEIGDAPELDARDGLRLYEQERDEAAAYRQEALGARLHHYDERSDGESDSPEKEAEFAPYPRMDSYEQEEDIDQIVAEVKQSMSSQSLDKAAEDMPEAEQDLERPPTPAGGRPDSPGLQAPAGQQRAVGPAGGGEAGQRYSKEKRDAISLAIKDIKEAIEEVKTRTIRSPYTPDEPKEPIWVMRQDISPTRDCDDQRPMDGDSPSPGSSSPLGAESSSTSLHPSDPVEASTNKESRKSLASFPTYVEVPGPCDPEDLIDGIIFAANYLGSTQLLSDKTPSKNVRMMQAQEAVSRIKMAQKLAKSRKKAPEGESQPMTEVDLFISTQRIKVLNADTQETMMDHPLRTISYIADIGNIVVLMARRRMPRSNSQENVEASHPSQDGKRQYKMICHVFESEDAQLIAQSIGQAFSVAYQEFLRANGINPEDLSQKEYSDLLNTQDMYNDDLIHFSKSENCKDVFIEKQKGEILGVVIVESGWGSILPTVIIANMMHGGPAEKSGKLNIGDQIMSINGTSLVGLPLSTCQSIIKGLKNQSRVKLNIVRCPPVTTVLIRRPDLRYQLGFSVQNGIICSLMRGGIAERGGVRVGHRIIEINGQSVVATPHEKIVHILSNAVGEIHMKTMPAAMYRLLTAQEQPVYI

[9] = biological target: T3, Tyrosine-protein phosphatase non-receptor type 22 (Homo sapiens, UniProt Q9Y2R2); experiment: SAR LYP1 Fluorescent Assay using OMFP substrate for In Vitro dose response studies - Set 2. [Related pubchem assays (depositor defined):AID1779, AID1784, AID2140, AID449726, AID488869]; format: functional
T3 sequence (Q9Y2R2 whole entry): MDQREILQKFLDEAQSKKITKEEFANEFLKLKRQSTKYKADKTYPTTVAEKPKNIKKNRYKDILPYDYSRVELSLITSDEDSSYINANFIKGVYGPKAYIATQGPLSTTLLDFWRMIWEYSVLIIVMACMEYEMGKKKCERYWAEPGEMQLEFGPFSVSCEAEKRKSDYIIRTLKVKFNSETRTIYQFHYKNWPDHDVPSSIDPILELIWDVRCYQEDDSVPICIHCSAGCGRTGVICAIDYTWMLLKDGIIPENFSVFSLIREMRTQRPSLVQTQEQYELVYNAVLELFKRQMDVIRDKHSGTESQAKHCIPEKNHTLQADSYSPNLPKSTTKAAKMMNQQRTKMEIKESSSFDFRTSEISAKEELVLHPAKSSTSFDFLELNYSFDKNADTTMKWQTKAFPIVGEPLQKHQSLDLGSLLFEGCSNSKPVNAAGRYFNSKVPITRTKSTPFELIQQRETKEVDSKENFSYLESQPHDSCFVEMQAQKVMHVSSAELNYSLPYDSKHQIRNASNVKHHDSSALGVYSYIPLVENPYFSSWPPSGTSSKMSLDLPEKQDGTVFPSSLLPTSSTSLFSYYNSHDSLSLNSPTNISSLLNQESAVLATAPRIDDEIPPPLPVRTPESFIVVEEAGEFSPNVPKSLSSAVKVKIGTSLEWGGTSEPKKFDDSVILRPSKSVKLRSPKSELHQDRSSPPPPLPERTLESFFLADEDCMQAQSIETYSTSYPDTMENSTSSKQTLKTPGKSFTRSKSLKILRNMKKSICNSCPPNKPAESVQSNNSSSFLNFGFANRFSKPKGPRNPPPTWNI

[10] = biological target: T3, Tyrosine-protein phosphatase non-receptor type 22; experiment: LYP (PTPN22) phosphatase inhibitor potency, SAR follow-up, biochemical, pCAP fluorogenic substrate, fluorescence, set 3 (AID 449727); format: functional
[11] = biological target: T3, Tyrosine-protein phosphatase non-receptor type 22; experiment: inhibitors of LYP phosphatase, biochemical, fluorescence intensity, uHTS (AID 1779)
[12] = biological target: T3, Tyrosine-protein phosphatase non-receptor type 22; experiment: SAR LYP1 Fluorescent Assay using OMFP substrate for In Vitro dose response studies - Set 3. [Related pubchem assays (depositor defined):AID1779, AID1784, AID2140, AID2686]; format: functional
[13] = biological target: T2, Voltage-gated N-type calcium channel alpha-1B subunit/Amyloid beta A4 precursor protein-binding family A member 1; format: protein assay; remark: listed apart in the source
[14] = biological target: T3, Tyrosine-protein phosphatase non-receptor type 22; format: functional
[15] = biological target: DNA (cytosine-5)-methyltransferase 1 (Homo sapiens, UniProt P26358); experiment: DNMT1 methyltransferase inhibitors, confirmation, biochemical, fluorescent molecular beacon (AID 602386); format: functional
[16] = biological target: T1, Tyrosine-protein phosphatase non-receptor type 7; format: functional
[17] = biological target: T3, Tyrosine-protein phosphatase non-receptor type 22; experiment: LYP1 Fluorescent Assay using OMFP substrate for In Vitro dose response studies. [Related pubchem assays (depositor defined):AID1779, AID1784, AID435024]
[18] = biological target: T3, Tyrosine-protein phosphatase non-receptor type 22; experiment: SAR LYP1 Fluorescent Assay using pCAP substrate for In Vitro dose response studies - Set 2. [Related pubchem assays (depositor defined):AID1779, AID1784, AID2135, AID449727]; format: functional
[19] = biological target: T3, Tyrosine-protein phosphatase non-receptor type 22; format: functional; remark: listed apart in the source
[20] = biological target: Tyrosine-protein phosphatase non-receptor type 12 (Homo sapiens, UniProt Q05209); experiment: SAR Selectivity Analysis of small molecule inhibitors of PEST using pCAP in a fluorescence assay. [Related pubchem assays (depositor defined):AID1779, AID1784, AID2135]; format: functional
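Throughout, for AC50: cells exposed to compound for roughly 70 hours or longer before luminescence read.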

Sequence of Intestinal-type alkaline phosphatase (P09923 whole entry): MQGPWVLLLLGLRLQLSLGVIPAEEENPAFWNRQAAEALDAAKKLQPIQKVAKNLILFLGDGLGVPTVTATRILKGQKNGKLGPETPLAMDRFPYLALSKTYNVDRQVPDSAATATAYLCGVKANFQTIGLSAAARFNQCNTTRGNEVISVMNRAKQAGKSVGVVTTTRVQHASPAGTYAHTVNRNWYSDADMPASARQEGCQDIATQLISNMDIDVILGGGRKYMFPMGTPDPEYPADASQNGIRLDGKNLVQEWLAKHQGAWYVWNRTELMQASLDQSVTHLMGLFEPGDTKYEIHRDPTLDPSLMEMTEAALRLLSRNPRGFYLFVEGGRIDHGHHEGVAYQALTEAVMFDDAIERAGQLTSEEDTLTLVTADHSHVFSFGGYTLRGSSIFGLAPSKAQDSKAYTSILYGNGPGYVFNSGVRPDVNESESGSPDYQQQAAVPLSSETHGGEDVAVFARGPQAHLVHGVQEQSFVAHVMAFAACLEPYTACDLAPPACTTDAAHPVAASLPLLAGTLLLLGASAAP

## COc1cc(/C=N\NS(=O)(=O)c2ccccc2)cc(OC)c1OC
[1]
  EC50: > 100 µM (inactive)

## Nc1cccc2c1C(=O)N(C(=O)/C=C/c1cccc(F)c1)C2=O
Genome polyprotein
  IC50: > 100 µM (active)
X-box-binding protein 1
  Absolute IC50 (XBP1): 10 µM
[2]
  Absolute IC50 (CHOP): < 10 µM

## CSc1c(SCc2ccccc2)cnn(-c2ccccc2)c1=O
[3]
  EC50: > 79.4 µM (not active)
[4]
  EC50: 13.2 µM (inactive)
[5]
  AC50: 2.51 µM (active)
[6]
  EC50: 10.7 µM (not active)

## CCOc1cc(/C=C(\C#N)C(=O)Nc2cccc(C(=O)O)c2)ccc1OCc1ccc(Br)cc1
[7]
  IC50: 4.94 µM (active)
[8]
  IC50: 44.3 µM (active)
[9]
  IC50: 1.54 µM (active)
[10]
  IC50: 1.74 µM (active)
[11]
  IC50: 3.97 µM (active)
[12]
  IC50: 0.775 µM (active)
[13]
  IC50: > 50 µM (inactive)
[14]
  IC50: 3.78 µM (active)
[15]
  IC50: 5.4 µM (active)
[16]
  IC50: 2.41 µM (active)
[17]
  IC50: 1.3 µM (active)
[18]
  IC50: 1.86 µM (active)
[19]
  IC50: < 1.24 µM (active)
[20]
  IC50: 0.471 µM (active)
